Counter-ions that a name gives are not always drawn. Like-named read-outs stand apart in the source and are kept apart here.
Tests used:
[1] = codelivered with 300 mg of lidocaine; cited from earlier work
anesthetized guinea pigs [2] = conditions: guinea pig, in vivo
subjects = experiment: Study 16: Platform IIA under various treatment conditions; assay type: in vivo, human; conditions: patches containing lidocaine 10% with and without epinephrine
[3] = iontophoresis in vitro across human skin; cited from earlier work
anesthetized guinea pigs [4] = experiment: In vivo delivery of radiolabeled drug into anesthetized guinea pigs

## CNCC(O)c1ccc(O)c(O)c1 [epinephrine, 1,2 Beizenediol, 4-[1-hydroxy-2-(methylamino)ethyl]-,(R)—, [R—(R*,R*)]-2,3-dihydroxybutanedioate (1:1) (salt)]
[1]
  maximum recommended dose: 150 µg
Anesthetized guinea pigs [2]
  amount delivered per patch: 2.4 µg
subjects
  effect of epinephrine on the anaesthetic effect of lidocaine: significantly enhanced

## CCCN(CC)C(CC)C(=O)Nc1c(C)cccc1C (stereo not shown) [etidocaine]
[3]
  cumulative delivery compared with lidocaine: slightly greater delivery

## CCN(CC)CC(=O)Nc1c(C)cccc1C.Cl [lidocaine, 2-(Diethylamino)-2′,6′-acetoxylidide mono hydrochloride, monohydrate]
Anesthetized guinea pigs [4]
  amount delivered per patch: 467 µg

## CCCNC(C)C(=O)Nc1ccccc1C (stereo not shown) [prilocaine]
[3]
  cumulative delivery compared with lidocaine: slightly greater delivery

## CCN(CC)CCOC(=O)c1ccc(N)cc1 [procaine]
[3]
  cumulative delivery compared with lidocaine: slightly greater delivery
